Tested on in one series: not given
Assay: not given
Conditions: not given
Compound `CN1CCC(N(C)C(=O)CCc2oc(-n3cnc4ccccc43)nc2-c2ccc(Cl)cc2)CC1` [Example 193, 3-[2-(1H-benzimidazol-1-yl)-4-(4-chlorophenyl)-5-oxazolyl]-N-methyl-N-(1-methyl-4-piperidinyl)propionamide] yielded a melting point of 133 to 134 °C.

For `O=C(CCc1oc(-n2cnc3ccccc32)nc1-c1ccc(Cl)cc1)N1CCS(=O)(=O)CC1` [Example 194, 4-{3-[2-(1H-benzimidazol-1-yl)-4-(4-chlorophenyl)-5-oxazolyl]propanoyl}thiomorpholine-1,1-dioxide], the melting point was 227 to 228 °C.

With `O=C(CCCc1oc(-n2cnc3ccccc32)nc1-c1ccc(Cl)cc1)NCc1cc(Br)ccc1F` [Example 195, 4-[2-(1H-benzimidazol-1-yl)-4-(4-chlorophenyl)-5-oxazolyl]-N-(5-bromo-2-fluorobenzyl)butanamide], the melting point lay in the range of 196 to 198 °C.

As to `Cc1ccc(CNC(=O)CCCc2oc(-n3cnc4ccccc43)nc2-c2ccc(Cl)cc2)cc1` [Example 196, 4-[2-(1H-benzimidazol-1-yl)-4-(4-chlorophenyl)-5-oxazolyl]-N-(4-methylbenzyl)butanamide], the melting point was in the range of 190 to 191 °C.

With `O=C(CCc1sc(-n2cnc3ccccc32)nc1-c1ccc(Cl)cc1)NCc1cc(Br)ccc1F` [Example 202, 3-[2-(1H-benzimidazol-1-yl)-4-(4-chlorophenyl)-5-thiazolyl]-N-(5-bromo-2-fluorobenzyl)propionamide], the melting point was in the range of 188 to 189 °C.

Turning to `Cc1ccc(CNC(=O)CCc2sc(-n3cnc4ccccc43)nc2-c2ccc(Cl)cc2)cc1` [Example 203, 3-[2-(1H-benzimidazol-1-yl)-4-(4-chlorophenyl)-5-thiazolyl]-N-(4-methylbenzyl)propionamide], the melting point lay in the range of 191 to 192 °C.

In turn, `O=C(CCCc1sc(-n2cnc3ccccc32)nc1-c1ccc(Cl)cc1)NCc1cc(Br)ccc1F` [Example 216, 4-[2-(1H-benzimidazol-1-yl)-4-(4-chlorophenyl)-5-thiazolyl]-N-(5-bromo-2-fluorobenzyl)butanamide] displayed a melting point of 160 to 161 °C.

`Cc1ccc(CNC(=O)CCCc2sc(-n3cnc4ccccc43)nc2-c2ccc(Cl)cc2)cc1` [Example 217, 4-[2-(1H-benzimidazol-1-yl)-4-(4-chlorophenyl)-5-thiazolyl]-N-(4-methylbenzyl)butanamide] came in with a melting point of 138 to 139 °C.

On to `N#CCc1ccc(NC(=O)Cc2sc(-n3cnc4ccccc43)nc2-c2ccc(Cl)cc2)cc1` [Example 219, 2-[2-(1H-benzimidazol-1-yl)-4-(4-chlorophenyl)-5-thiazolyl]-N-[4-(cyanomethyl)phenyl]acetamide], for which the melting point is 245 to 246 °C.

`N#CCc1ccc(NC(=O)CCCCc2sc(-n3cnc4ccccc43)nc2-c2ccc(Cl)cc2)cc1` [Example 223, 5-[2-(1H-benzimidazol-1-yl)-4-(4-chlorophenyl)-5-thiazolyl]-N-[4-(cyanomethyl)phenyl]pentanamide] displayed a melting point of 187 to 188 °C.

`Nc1nc(-c2ccc(Cl)cc2)c(CCC(=O)N2CCS(=O)(=O)CC2)s1` [Example 227B, 4-{3-[2-amino-4-(4-chlorophenyl)-5-thiazolyl]propanoyl}thiomorpholine-1,1-dioxide] yielded a melting point of 220 to 222 °C.

The compound `Cc1nc(-c2ccc(Cl)cc2)c(CCC(=O)N2CCS(=O)(=O)CC2)o1` [Example 241, 4-{3-[4-(4-chlorophenyl)-2-methyl-5-oxazolyl]propanoyl}thiomorpholine-1,1-dioxide] registered a melting point of 124 to 125 °C.

In turn, `O=C(CCc1oc(-n2cnc3ccccc32)nc1-c1ccccc1)N1CCC(O)CC1` [Example 247, 1-{3-[2-(1H-benzoimidazol-1-yl)-4-phenyl-5-oxazolyl]propanoyl}-4-piperidinol] returned a melting point of 157 to 158 °C.

In the case of `COc1ccc(-c2nc(-n3cnc4ccccc43)oc2CCC(=O)N2CCC(O)CC2)cc1` [Example 248, 1-(3-[2-(1H-benzoimidazol-1-yl)-4-(4-methoxyphenyl)-5-oxazolyl]propanoyl)-4-piperidinol], the melting point fell in the range of 161 to 162 °C.

`COc1ccc(-c2nc(-n3cnc4ccccc43)oc2CCC(=O)N2CCN(CC3CCCN(C)C3)CC2)cc1` (centres unmarked) [Example 252, 1-{3-[2-(1H-benzoimidazol-1-yl)-4-(4-methoxyphenyl)-5-oxazolyl]propanoyl}-4-[(1-methylpiperidin-3-yl)methyl]piperazine] had a melting point of 151 to 152 °C.

Regarding `O=C(CCc1oc(-n2cnc3ccccc32)nc1-c1cccc(Cl)c1)N1CCC(O)CC1` [Example 257, 1-{3-[2-(1H-benzoimidazol-1-yl)-4-(3-chlorophenyl)-5-oxazolyl]propanoyl}-4-piperidinol], the melting point was in the range of 97 to 98 °C.

In the case of `O=C(CCc1oc(-n2cnc3ccccc32)nc1-c1ccc(F)cc1)N1CCC(O)CC1` [Example 258, 1-{3-[2-(1H-benzoimidazol-1-yl)-4-(4-fluorophenyl)-5-oxazolyl]propanoyl}-4-piperidinol], the melting point is 158 to 159 °C.

For the compound `O=C(CCc1oc(-n2cnc3ccccc32)nc1-c1ccc(Cl)cc1)N1CCSC1` [Example 259, 3-{3-[2-(1H-benzoimidazol-1-yl)-4-(4-chlorophenyl)-5-oxazolyl]propanoyl}thiazolidine], the melting point was in the range of 125 to 126 °C.

Compound `O=C(CCc1oc(-n2cnc3ccccc32)nc1-c1ccc(Cl)cc1)N1CCCC(O)C1` (centres unmarked) [Example 300, 1-{3-[2-(1H-benzoimidazol-1-yl)-4-(4-chlorophenyl)-5-oxazolyl]propanoyl}-3-piperidinol] had a melting point of 104 to 105 °C.

In turn, `CCS(=O)(=O)CCNC(=O)CCc1oc(-n2cnc3ccccc32)nc1-c1ccc(Cl)cc1` [Example 301, 3-[2-(1H-benzoimidazol-1-yl)-4-(4-chlorophenyl)-5-oxazolyl]-N-[2-(ethylsulfonyl)ethyl]propanamide] returned a melting point of 182 to 183 °C.

On to `CS(=O)(=O)CCNC(=O)CCc1oc(-n2cnc3ccccc32)nc1-c1ccc(Cl)cc1` [Example 302, 3-[2-(1H-benzoimidazol-1-yl)-4-(4-chlorophenyl)-5-oxazolyl]-N-[2-(methylsulfonyl)ethyl]propanamide], for which the melting point was 194 to 195 °C.

Regarding `CN(CCS(C)(=O)=O)C(=O)CCc1oc(-n2cnc3ccccc32)nc1-c1ccc(Cl)cc1` [Example 303, 3-[2-(1H-benzoimidazol-1-yl)-4-(4-chlorophenyl)-5-oxazolyl]-N-[2-(methylsulfonyl)ethyl]-N-methylpropanamide], the melting point fell in the range of 141 to 142 °C.

As for `O=C(CCc1oc(-n2cnc3ccccc32)nc1-c1ccc(Cl)cc1)NC1CCC(O)CC1` (centres unmarked) [Example 304, 3-[2-(1H-benzoimidazol-1-yl)-4-(4-chlorophenyl)-5-oxazolyl]-N-(4-hydroxycyclohexyl)propanamide], the melting point lay in the range of 204 to 206 °C.

Regarding `O=C(CCc1oc(-n2cnc3ccccc32)nc1-c1ccc(Cl)cc1)N1CCC(CO)CC1` [Example 305, (1-{3-[2-(1H-benzoimidazol-1-yl)-4-(4-chlorophenyl)-5-oxazolyl]propanoyl}-4-piperidinyl)methanol], the melting point lay within 101 to 102 °C.

As for `CS(=O)(=O)C1CCN(C(=O)CCc2oc(-n3cnc4ccccc43)nc2-c2ccc(Cl)cc2)CC1` [Example 307, 1-{3-[2-(1H-benzoimidazol-1-yl)-4-(4-chlorophenyl)-5-oxazolyl]propanoyl}-4-(methylsulfonyl)piperidine], the melting point lay in the range of 215 to 216 °C.

Regarding `O=C(CCc1oc(-n2cnc3ccccc32)nc1-c1ccc(Cl)cc1)N1CCS(=O)(=O)C1` [Example 344, 3-{3-[2-(1H-benzoimidazol-1-yl)-4-(4-chlorophenyl)-5-oxazolyl]propanoyl}thiazolidine-1,1-dioxide], the melting point was 136 to 137 °C.

Regarding `Cc1cc(C)n(-c2nc(-c3ccc(Cl)cc3)c(CCC(=O)N3CCN(CC4CCN(C)CC4)CC3)o2)n1` [Example 347, 1-{3-[4-(4-chlorophenyl)-2-(3,5-dimethyl-1H-pyrazol-1-yl)-5-oxazolyl]propanoyl}-4-[(1-methyl-4-piperidinyl)methyl]piperazine], the melting point lay within 126 to 127 °C.

The test system of the next series is diabetic neuropathy model (streptozotocin-injected rats). Kind of series: Motor nerve conduction velocity in STZ diabetic neuropathy model rats. The following applies: male SD rats, STZ 70 mg/kg diabetic neuropathy model; 3 mg/kg orally in 0.5% methyl cellulose; average value ± SD (n = 7–8). Format: in vivo. The protocol:
(§1) To 6-week-old male SD rats (CLEA Japan, Inc.) was injected 70 mg/kg body weight of streptozotocin (STZ) from the tail vein to form a diabetic neuropathy model.
(§2) After raising for one month, 3 mg/kg of compound (compound of Example 5 or Example 226) suspended in 0.5% methyl cellulose was orally administered to the rats. For the control group, a 0.5% aqueous methyl cellulose suspension free of the aforementioned compound was administered.
After the completion of the administration, the rats were anesthetized with Nembutal, the body temperature was maintained at a constant level using a hot plate at 37° C. and a desk lamp, needle electrodes were placed on the above-knee region and ankle, stimulated using Neuropack 2 (NIHON KOHDEN CORPORATION) principally at 1.6 mA and the evoked potential was detected from the plantar part. The Motor Nerve Conduction Velocity (MNCV) was calculated from the distance between different electrodes and latency difference of waveforms.
With `CCOP(=O)(Cc1ccc(NC(=O)CCCc2oc(-n3cnc4ccccc43)nc2-c2ccc(Cl)cc2)cc1)OCC` [Example 226, 4-[2-(1H-benzimidazol-1-yl)-4-(4-chlorophenyl)-5-oxazolyl]-N-[(4-diethylphosphonomethyl)phenyl]butanamide], the “MNCV (Motor Nerve Conduction Velocity)” value was 52.3 ± 2.4 m/s.

A further series has as its system BDNF. Kind of series: BDNF content of ischiadic nerve of STZ diabetic neuropathy model rats (sandwich ELISA). The format is in vivo. The following applies: male SD rats, STZ 70 mg/kg diabetic neuropathy model, 3 mg/kg orally in 0.5% methyl cellulose, ischiadic nerve supernatant, average value ± SD (n = 7–8). The procedure:
as §1, §2
After the evaluation of the nerve conduction velocity, the ischiadic nerve was taken from the rat, a lysis buffer (0.1M Tris-HCl buffer containing 1M sodium chloride, 2% BSA, 2 mM EDTA, 80 trypsin unit/L of aprotinin, pH 7.6) in a 20-fold amount of the wet weight of ischiadic nerve was added and the mixture was subjected to ultrasonication and centrifugal separation (15,000 rpm, 60 min.), and the BDNF content of the supernatant was measured.
The BDNF content was measured by sandwich ELISA Method using anti-BDNF polyclonal antibody (Promega) and biotinated anti-BDNF antibody (G1641, Promega). The results are shown in [Table 20].
Consider `CCOP(=O)(Cc1ccc(NC(=O)CCCc2oc(-n3cnc4ccccc43)nc2-c2ccc(Cl)cc2)cc1)OCC` [Example 226, 4-[2-(1H-benzimidazol-1-yl)-4-(4-chlorophenyl)-5-oxazolyl]-N-[(4-diethylphosphonomethyl)phenyl]butanamide], for which the “BDNF (content of ischiadic nerve)” value was determined as 3.6 ± 0.4 ng/g.

A word on the melting point: it is the temperature of the solid-liquid transition.
